Assay results as given in publication PMC4151236, “Early identification of hERG liability in drug discovery programs by automated patch clamp” (Frontiers in Pharmacology, 2014).

Biological target: T1, hERG (Kv11.1) (Homo sapiens, UniProt Q12809)
T1 construct: gene KCNH2
Assay: automated whole-cell patch clamp (QPatch), CHO hERG DUO cells, three-point dose-response
Assay type: cell-based

T1 sequence (Q12809 whole entry): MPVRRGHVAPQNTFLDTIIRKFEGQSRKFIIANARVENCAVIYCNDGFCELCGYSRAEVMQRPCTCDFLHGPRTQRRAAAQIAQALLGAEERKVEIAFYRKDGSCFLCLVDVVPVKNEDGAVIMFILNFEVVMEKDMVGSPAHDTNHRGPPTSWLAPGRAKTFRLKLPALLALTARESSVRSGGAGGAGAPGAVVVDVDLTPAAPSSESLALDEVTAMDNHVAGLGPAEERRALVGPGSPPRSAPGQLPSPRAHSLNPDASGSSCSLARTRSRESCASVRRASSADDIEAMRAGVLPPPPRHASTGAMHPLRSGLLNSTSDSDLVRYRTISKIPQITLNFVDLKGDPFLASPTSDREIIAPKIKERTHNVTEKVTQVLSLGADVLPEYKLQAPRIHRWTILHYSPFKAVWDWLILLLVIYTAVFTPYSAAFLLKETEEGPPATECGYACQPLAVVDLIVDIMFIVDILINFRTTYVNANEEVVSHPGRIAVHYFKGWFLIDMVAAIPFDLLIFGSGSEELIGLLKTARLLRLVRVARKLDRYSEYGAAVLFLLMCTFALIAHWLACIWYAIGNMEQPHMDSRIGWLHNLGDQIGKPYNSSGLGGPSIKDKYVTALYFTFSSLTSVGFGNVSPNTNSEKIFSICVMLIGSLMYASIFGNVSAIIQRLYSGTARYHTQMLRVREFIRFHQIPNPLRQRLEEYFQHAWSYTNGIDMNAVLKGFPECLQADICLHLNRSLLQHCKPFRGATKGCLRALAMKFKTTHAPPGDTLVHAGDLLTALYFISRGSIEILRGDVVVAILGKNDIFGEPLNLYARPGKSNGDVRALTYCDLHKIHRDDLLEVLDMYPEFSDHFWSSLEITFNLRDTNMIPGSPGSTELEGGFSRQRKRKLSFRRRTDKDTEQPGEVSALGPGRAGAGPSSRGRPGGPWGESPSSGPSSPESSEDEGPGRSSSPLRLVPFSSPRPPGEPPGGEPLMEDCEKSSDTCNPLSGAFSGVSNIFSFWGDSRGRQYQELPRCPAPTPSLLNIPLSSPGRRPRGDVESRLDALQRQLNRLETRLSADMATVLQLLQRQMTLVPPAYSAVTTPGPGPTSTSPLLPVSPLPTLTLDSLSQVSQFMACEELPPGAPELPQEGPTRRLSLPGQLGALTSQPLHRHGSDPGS

In the case of `COc1cc(N)c(Cl)cc1C(=O)NC1CCN(CCCOc2ccc(F)cc2)CC1OC` (stereo not shown) [Cisapride], the “automated whole-cell patch clamp (QPatch), CHO hERG DUO cells, three-point dose-” value is reported as “superimposed to visualize the effect of increasing concentrations of the known hERG blocker Cisapride”.
